Earlier results as cited in US20060287301A1, “Novel formulations for phenothiazines, including fluphenazine and its derivatives” (priority 2005, published 2006).
Counter-ions that a name gives are not always drawn. Like-named read-outs stand apart in the source and are kept apart here.

Conditions: words only

Row | Compound | solubility in water (HCl) | solubility in water
1 | OCCN1CCN(CCCN2c3ccccc3Sc3ccc(C(F)(F)F)cc32)CC1 [Fluphenazine HCl] | poorly soluble | –
2 | OCCN1CCN(CCCN2c3ccccc3Sc3ccc(C(F)(F)F)cc32)CC1 [Fluphenazine, fluphenazine] | – | marginally water soluble
